# US20100010219A1, “METHOD FOR PRODUCING PYRROLIDINE COMPOUND” (JAPAN TOBACCO INC., priority 2006, published 2010)
# Counter-ions that a name gives are not always drawn.
# Biological target: T1, human HSD-1 (recombinant HSD-1) (Homo sapiens, UniProt P28845)
# T1 construct: made in house
# Test: HSD-1 activity inhibitory action in vitro (SPA, conversion of cortisone to cortisol)
# Type: biochemical
# Conditions: recombinant human HSD-1 expressed using baculovirus system; 10 nM 3H cortisone, 500 μM NADPH; room temperature 90 to 120 min; read-out: hHSD1 (IC50 (nM))
# T1 sequence (P28845 whole entry): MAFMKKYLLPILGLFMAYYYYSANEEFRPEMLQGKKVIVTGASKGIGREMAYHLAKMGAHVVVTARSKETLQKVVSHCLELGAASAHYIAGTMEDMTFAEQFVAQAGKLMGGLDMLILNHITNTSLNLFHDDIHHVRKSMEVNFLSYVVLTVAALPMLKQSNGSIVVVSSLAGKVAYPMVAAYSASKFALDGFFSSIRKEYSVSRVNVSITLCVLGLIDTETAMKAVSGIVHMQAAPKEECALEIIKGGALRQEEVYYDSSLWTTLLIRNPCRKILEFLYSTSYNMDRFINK
row,Structure (SMILES),IC50 [nM]
1,"O=C(OCCN1CCCCC1)N1CCC(n2ncc(C(=O)N3CC[C@@H](c4ccccc4C(F)(F)F)C3)c2C2CC2)CC1 [Example 60, 1-{5-cyclopropyl-1-[1-(2-piperidin-1-yl-ethoxycarbonyl)piperidin-4-yl]-1H-pyrazole-4-carbonyl}-[(S)-3-(2-trifluoromethylphenyl)]pyrrolidine hydrochloride]",< 30
2,"O=C(OC1CCNCC1)N1CCC(n2ncc(C(=O)N3CC[C@@H](c4ccccc4C(F)(F)F)C3)c2C2CC2)CC1 [Example 61, 1-{5-cyclopropyl-1-[1-(piperidin-4-yl-oxycarbonyl)piperidin-4-yl]-1H-pyrazole-4-carbonyl}-[(S)-3-(2-trifluoromethylphenyl)]pyrrolidine hydrochloride]",< 30
3,"CC(=O)N1CCC(OC(=O)N2CCC(n3ncc(C(=O)N4CC[C@@H](c5ccccc5C(F)(F)F)C4)c3C3CC3)CC2)CC1 [Example 63, 1-{1-[1-(1-acetylpiperidin-4-yl-oxycarbonyl)piperidin-4-yl]-5-cyclopropyl-1H-pyrazole-4-carbonyl}-[(S)-3-(2-trifluoromethylphenyl)]pyrrolidine]",< 30
4,"O=C(c1cnn(C2CCN(C(=O)C3CC3)CC2)c1C1CC1)N1CC[C@@H](c2ccccc2C(F)(F)F)C1 [Example 64, 1-[1-(1-cyclopropanecarbonylpiperidin-4-yl)-5-cyclopropyl-1H-pyrazole-4-carbonyl]-[(S)-3-(2-trifluoromethylphenyl)]pyrrolidine]",< 30
5,"O=C(CO)N1CCC(n2ncc(C(=O)N3CC[C@@H](c4ccccc4C(F)(F)F)C3)c2C2CC2)CC1 [Example 65, 1-{5-cyclopropyl-1-[1-(2-hydroxyacetyl)piperidin-4-yl]-1H-pyrazole-4-carbonyl}-[(S)-3-(2-trifluoromethylphenyl)]pyrrolidine]",< 30
6,"O=C(c1cnn(C2CCN(C(=O)C3(c4ccc(F)cc4)CC3)CC2)c1C1CC1)N1CC[C@@H](c2ccccc2C(F)(F)F)C1 [Example 66, 1-(5-cyclopropyl-1-{1-[1-(4-fluorophenyl)cyclopropanecarbonyl]piperidin-4-yl}-1H-pyrazole-4-carbonyl)-[(S)-3-(2-trifluoromethylphenyl)]pyrrolidine]",< 30
7,"CN(C)CC(=O)N1CCC(n2ncc(C(=O)N3CC[C@@H](c4ccccc4C(F)(F)F)C3)c2C2CC2)CC1 [Example 67, 1-{5-cyclopropyl-1-[1-(2-dimethylaminoacetyl)piperidin-4-yl]-1H-pyrazole-4-carbonyl}-[(S)-3-(2-trifluoromethylphenyl)]pyrrolidine hydrochloride]",< 30
8,"CC(=O)NCC(=O)N1CCC(n2ncc(C(=O)N3CC[C@@H](c4ccccc4C(F)(F)F)C3)c2C2CC2)CC1 [Example 68, 1-{1-[1-(2-acetylaminoacetyl)piperidin-4-yl]-5-cyclopropyl-1H-pyrazole-4-carbonyl}-[(S)-3-(2-trifluoromethylphenyl)]pyrrolidine]",< 30
9,"CC1(C(=O)N2CCC(n3ncc(C(=O)N4CC[C@@H](c5ccccc5C(F)(F)F)C4)c3C3CC3)CC2)CC1 [Example 69, 1-{5-cyclopropyl-1-[1-(1-methylcyclopropanecarbonyl)piperidin-4-yl]-1H-pyrazole-4-carbonyl}-[(S)-3-(2-trifluoromethylphenyl)]pyrrolidine]",< 30
10,"CC(=O)N[C@@H](C)C(=O)N1CCC(n2ncc(C(=O)N3CC[C@@H](c4ccccc4C(F)(F)F)C3)c2C2CC2)CC1 [Example 71, 1-(1-{1-[(S)-2-acetylaminopropionyl]piperidin-4-yl}-5-cyclopropyl-1H-pyrazole-4-carbonyl)-[(S)-3-(2-trifluoromethylphenyl)]pyrrolidine]",< 30
11,"CC(=O)N[C@H](C(=O)N1CCC(n2ncc(C(=O)N3CC[C@@H](c4ccccc4C(F)(F)F)C3)c2C2CC2)CC1)C(C)C [Example 72, 1-(1-{1-[(S)-2-acetylamino-3-methylbutyryl]piperidin-4-yl}-5-cyclopropyl-1H-pyrazole-4-carbonyl)-[(S)-3-(2-trifluoromethylphenyl)]pyrrolidine]",< 30
